Patent publication US20250352500A1, “USE OF PHENOLIC ACIDS DERIVATIVES IN TREATING ISCHEMIC STROKE” (LANZHOU UNIVERSITY, priority 2022, published 2025)

Tests used:
Format in all cases: in vivo, male C57/BL mice
[1] = system: MCAO model mice; test: Rotating rod (balance rod) test of motor coordination after ischemia-reperfusion
Procedure: (§1) Grouping and administration method: Male C57/BL mice weighing 23±1 g were randomly divided into sham operation group (SHAM), model group (MCAO), compound 2 group (100 mg/kg), and compound 1 group (50 mg/kg), with 10 mice in each group. Mice in the SHAM group underwent vascular isolation, but no […] was administered, and no treatment was given before or after surgery. The model group mice were constructed with MCAO models and were not treated before and after surgery. The treatment group was treated with compound 2 or compound 1 on the basis of the model group. Mice with a neurological score of 0 after reperfusion and those that died before 72 hours post-surgery were excluded. The administration time for animal behavior tests was seven times at 0 h, 1 day, 2 days, 3 days, 4 days, 5 days, and 6 days after reperfusion, while the administration time for other experiments was three times at 0 h, 1 day, and 2 days after reperfusion. The drug was administered through the tail vein, and the sham operation group and model group were given equal amounts of saline.
The balance rod test was used to test the motor coordination of mice. The experiment was divided into four groups: sham operation group (SHAM), model group (MCAO), compound 2 group and compound 1 group. The effects of compound 2 on the recovery of behavioral function in mice after ischemia-reperfusion were comprehensively analyzed. The rotating rod test can test the motor coordination ability of mice. The experimental procedure is set to gradually accelerate the speed of the rotating rod from 10 rpm to 40 rpm within 300 seconds. Record the time that the mouse stays on the rotating stick. The mice were trained 3 days in advance. Select mice that can stay on the rotating rod for about 300 seconds for the next experiment. The time that the mice spent on the rotating rod before the model was constructed was selected as the pre-operative test value. The trained mice were subjected to MCA occlusion for 60 minutes and then reperfusion. Mice in the SHAM group, MCAO group, Compound 2 group, and Compound 1 group underwent rotating rod testing on days 1, 3, 5, and 7 post-surgeries, respectively, and the duration of their stay on the rotating rod was recorded.
After reperfusion for 1 to 3 days, the motor coordination ability continued to decline, but gradually recovered after 3 days, but the degree of recovery was extremely low.

[2] = system: MCAO model mice; test: Body weight change after ischemia-reperfusion
Procedure: as §1
At the same time, the weight change and survival rate of mice after ischemia-reperfusion were analyzed.

[3] = system: GFAP; test: GFAP immunofluorescence in brain tissue (astrocytes); conditions: 72 h ischemia-reperfusion, three days of administration; compound 2 100 mg/kg, compound 1 50 mg/kg; MCAO group 481±67; mean±SEM, n=3
Procedure: as §1, with “The administration time for animal behavior tests was seven times at 0 h, 1 day, 2 days, 3 days, 4 days, 5 days, and 6 days after reperfusion, while the administration time for other experiments was three times at 0 h, 1 day, and 2 days after reperfusion. The drug was administered through the tail vein, and the sham operation group and model group were given equal amounts of saline.” left out
To investigate whether compound 2 has an effect on the activation and proliferation of astrocytes during ischemia-reperfusion, this study used immunofluorescence experiments to observe and detect the fluorescence expression of GFAP in brain tissues from the sham operation group, model group, compound 2 group, and compound 1 group. […] After 72 hours of ischemia-reperfusion, the activation and proliferation of GFAP protein in astrocytes in the brain region were analyzed by immunofluorescence staining. […]

[4] = system: TNF-α, IL-1β, IL-6, iNOS, and COX2; test: Immunofluorescence of pro-inflammatory factors in brain tissue; conditions: 72 h, P<0.001; for Number of pro-inflammatory factor-positive cells compared with MCAO group: three days of administration, compound 2 100 mg/kg, compound 1 50 mg/kg
Procedure: as §1
To investigate the effect of compounds on the expression of inflammatory factors after ischemia-reperfusion, this study used immunofluorescence experiments to observe the expression of TNF-α, IL-1β, IL-6, iNOS, and COX2 proteins in brain tissue. RT-qPCR experiments were used to detect the mRNA gene expression of pro-inflammatory factors TNF-α, IL-1β, IL-6, iNOS, and COX2 in the sham operation group, model group, compound 2 group, and compound 1 group. The concentrations of TNF-α, IL-1β, and IL-6 in brain homogenate were detected by enzyme-linked immunosorbent assay (ELISA), and the expression level of TNF-α protein in brain tissue was detected by Western blot.
After 72 hours of ischemia-reperfusion, the expression changes of inflammatory factors such as TNF-α, IL-1β, IL-6, iNOS, and COX2 in brain regions were analyzed by immunofluorescence staining. […]

[5] = system: TNF-α; test: RT-qPCR of TNF-α mRNA in brain tissue; conditions: 72 h, three days of administration, compound 2 100 mg/kg, compound 1 50 mg/kg, P<0.05
Procedure: as §1, with “The administration time for animal behavior tests was seven times at 0 h, 1 day, 2 days, 3 days, 4 days, 5 days, and 6 days after reperfusion, while the administration time for other experiments was three times at 0 h, 1 day, and 2 days after reperfusion. The drug was administered through the tail vein, and the sham operation group and model group were given equal amounts of saline.” left out
(§2) To investigate the effect of compounds on the expression of inflammatory factors after ischemia-reperfusion, this study used immunofluorescence experiments to observe the expression of TNF-α, IL-1β, IL-6, iNOS, and COX2 proteins in brain tissue. […] The concentrations of TNF-α, IL-1β, and IL-6 in brain homogenate were detected by enzyme-linked immunosorbent assay (ELISA), and the expression level of TNF-α protein in brain tissue was detected by Western blot.
(§3) After 72 hours of ischemia-reperfusion, the mRNA expression levels of TNF-α, IL-1β, IL-6, iNOS, and COX2 in brain tissue were detected and analyzed by RT-qPCR. […]

[6] = system: iNOS; test: RT-qPCR of iNOS mRNA in brain tissue; conditions: 72 h, three days of administration, compound 2 100 mg/kg, compound 1 50 mg/kg, P<0.05
Procedure: as §1, with “The administration time for animal behavior tests was seven times at 0 h, 1 day, 2 days, 3 days, 4 days, 5 days, and 6 days after reperfusion, while the administration time for other experiments was three times at 0 h, 1 day, and 2 days after reperfusion. The drug was administered through the tail vein, and the sham operation group and model group were given equal amounts of saline.” left out
as §2, §3

[7] = system: IL-1β; test: ELISA of IL-1β in brain homogenate; conditions: 72 h, three days of administration, compound 2 100 mg/kg, compound 1 50 mg/kg
Procedure: as §1, with “The administration time for animal behavior tests was seven times at 0 h, 1 day, 2 days, 3 days, 4 days, 5 days, and 6 days after reperfusion, while the administration time for other experiments was three times at 0 h, 1 day, and 2 days after reperfusion. The drug was administered through the tail vein, and the sham operation group and model group were given equal amounts of saline.” left out
as §2
After 72 hours of ischemia-reperfusion, the expression levels of inflammatory factors TNF-α, IL-1β, and IL-6 in the mouse brain homogenate were detected.

[8] = system: TNF-α; test: TNF-α protein Western blot in brain tissue; conditions: 72 h; for TNF-α protein expression reduced compared with MCAO group: three days of administration, compound 2 100 mg/kg, compound 1 50 mg/kg, P<0.001
Procedure: as §1, §2
After 72 hours of ischemia-reperfusion, the expression level of TNF-α protein in brain tissue was detected by Western blot. […] In this experiment, β-actin was used as an internal reference protein. n=3, data are presented as mean±SEM, analyzed with one-way ANOVA, and subjected to Tukey's HSD test. *P<0.05, **P<0.01, ***P<0.001. ^#P<0.05, ^##P<0.01, ^###P<0.001. * indicates a comparison with the SHAM group, ^# indicates a comparison with the compound 2 group.

| Compound | Motor coordination ability (time on rotating rod) compared with MCAO group ([1]; compound 1 50 mg/kg tail vein, time not stated) | Body weight compared with the compound 2 group ([2]; 7th day after reperfusion, compound 1 50 mg/kg vs compound 2 100 mg/kg, P<0.05) | Number of GFAP-positive cells [3] | Number of pro-inflammatory factor-positive cells compared with MCAO group [4] | TNF-α mRNA expression compared with MCAO group [5] | iNOS mRNA expression compared with MCAO group [6] | Decrease in IL-1β expression compared with MCAO group [7] | TNF-α protein expression reduced compared with MCAO group [8] [%] | Motor coordination ability (time on rotating rod) compared with model group (MCAO) ([1]; at 5 and 7 days, compound 2 100 mg/kg tail vein, P<0.05) | Motor coordination (time on rotating rod) compared with model group (MCAO) ([1]; at 7 days of reperfusion, compound 2 100 mg/kg tail vein, P<0.001) | Motor coordination ability (time on rotating rod) compared with the compound 1 group ([1]; compound 2 100 mg/kg vs compound 1 50 mg/kg, P<0.001) | Body weight compared with MCAO group ([2]; 7th day of reperfusion, 100 mg/kg tail vein) | Density of pro-inflammatory factor-positive cells compared with the compound 1 group ([4]; compound 2 100 mg/kg vs compound 1 50 mg/kg) | TNF-α protein expression decreased compared with the compound 1 group ([8]; compound 2 100 mg/kg vs compound 1 50 mg/kg, P<0.05) [%] |
| --- | --- | --- | --- | --- | --- | --- | --- | --- | --- | --- | --- | --- | --- | --- |
| O=C(O)c1cc(O)ccc1O [compound 1] | improved | significantly decreased | 327±50 /mm^2 | significantly decreased | significantly reduced | significantly reduced | reduced to varying degrees | 20±10 |  |  |  |  |  |  |
| O=C(O)c1cc(OP(=O)(O)O)ccc1OP(=O)(O)O [compound 2] |  |  | 195±45 /mm^2 | significantly decreased | significantly reduced | significantly reduced | 32±9% | 40±12 | significantly improved | significantly improved | significantly improved | inhibited the decrease in body weight | significantly reduced | 31±20 |
